Measured values from patent US20060167057A1, “Compounds for the treatment of CNS and amyloid associated diseases” (priority 2004, published 2006).

target: T1, L1 transport system (large neutral amino acid carrier, L1-system carrier) (Rattus norvegicus, UniProt Q63016); test: Competitive binding assay to the brain L1 transport system (L-[U-14C]phenylalanine on rat primary cerebrovascular endothelial cells); conditions: 10^−4 M
T1 construct: functionality of their endogenous transporters such as the L1-system carrier; endogenous in cells; host or cells: rat primary cerebrovascular (brain microcapillary) endothelial cells, RBEC
T1 sequence (Q63016 whole entry): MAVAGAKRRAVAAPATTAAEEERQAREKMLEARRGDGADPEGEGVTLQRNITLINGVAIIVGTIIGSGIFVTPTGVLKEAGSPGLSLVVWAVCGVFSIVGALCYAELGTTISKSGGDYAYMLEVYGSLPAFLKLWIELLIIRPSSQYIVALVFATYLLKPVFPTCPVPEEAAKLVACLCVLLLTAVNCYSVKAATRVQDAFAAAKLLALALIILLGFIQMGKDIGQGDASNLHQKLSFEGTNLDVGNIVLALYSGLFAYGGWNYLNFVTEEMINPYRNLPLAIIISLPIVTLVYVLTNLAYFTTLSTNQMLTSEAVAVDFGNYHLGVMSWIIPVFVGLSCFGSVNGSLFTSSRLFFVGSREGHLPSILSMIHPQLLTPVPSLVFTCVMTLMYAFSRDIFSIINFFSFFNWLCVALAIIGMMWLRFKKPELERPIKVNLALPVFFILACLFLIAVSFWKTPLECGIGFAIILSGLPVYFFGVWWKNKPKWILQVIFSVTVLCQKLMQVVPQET
T1 sequence (Q794F9 whole entry partner): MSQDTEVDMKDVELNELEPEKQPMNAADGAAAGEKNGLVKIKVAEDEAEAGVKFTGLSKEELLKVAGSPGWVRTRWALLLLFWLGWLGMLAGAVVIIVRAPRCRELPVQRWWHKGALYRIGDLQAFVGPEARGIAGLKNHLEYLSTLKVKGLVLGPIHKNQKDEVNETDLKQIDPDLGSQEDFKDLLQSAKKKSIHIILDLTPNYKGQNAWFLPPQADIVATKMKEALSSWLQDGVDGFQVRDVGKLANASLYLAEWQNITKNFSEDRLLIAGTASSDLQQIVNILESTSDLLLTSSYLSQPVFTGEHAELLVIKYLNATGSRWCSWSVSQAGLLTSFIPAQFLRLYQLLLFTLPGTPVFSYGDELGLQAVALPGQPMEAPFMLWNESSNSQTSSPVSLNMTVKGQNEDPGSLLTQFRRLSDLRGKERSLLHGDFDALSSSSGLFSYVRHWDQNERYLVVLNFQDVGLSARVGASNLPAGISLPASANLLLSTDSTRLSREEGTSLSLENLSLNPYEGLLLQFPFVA
How it was run: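 Cells were primary cerebral microvascular endothelial cells from cortices of 24-day-old rats, isolated by collagenase/DNAse digestion, dextran separation and mesh filtration.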

SMILES | Comparison with the Binding of Phenylalanine
Cc1nc(SCc2ccc(-c3ccc(CC(N)C(=O)O)cc3)cc2)sc1CC(=O)O (stereo not drawn) [Compound 122] | 0 (X < 0 Rank 0)
NC(Cc1cccc(CSc2nnnn2CC(=O)O)n1)C(=O)O (stereo not drawn) [Compound 123] | 0 (X < 0 Rank 0)
NC(Cc1ccc(-c2ccc(CSc3nc4cc([N+](=O)[O-])ccc4[nH]3)cc2)cc1)C(=O)O (stereo not drawn) [Compound 124] | 0 (X < 0 Rank 0)
NC(Cc1cccc(CSc2nc3ccccc3c(=O)[nH]2)n1)C(=O)O (stereo not drawn) [Compound 125] | 0 (X < 0 Rank 0)
Cc1nnc(SCc2ccc(-c3ccc(CC(N)C(=O)O)cc3)cc2)s1 (stereo not drawn) [Compound 126] | 0 (X < 0 Rank 0)
CC(=O)c1ccc(N2CCN(Cc3cccc(CC(N)C(=O)O)n3)CC2)cc1 (stereo not drawn) [Compound 127] | 1 (0 < X < 10 Rank 1)
CCOC(=O)c1cnc(SCc2cccc(CC(N)C(=O)O)c2)[nH]c1=O (stereo not drawn) [Compound 131] | 2 (10 < X < 20 Rank 2)
NC(Cc1cccc(-c2cccc(Sc3nc(-c4ccccc4)c(-c4ccccc4)o3)c2)c1)C(=O)O (stereo not drawn) [Compound 134] | 0 (X < 0 Rank 0)
COc1ccc2[nH]c(SCc3cccc(CC(N)C(=O)O)c3)nc2c1 (stereo not drawn) [Compound 135] | 2 (10 < X < 20 Rank 2)
Cc1ccnc(Sc2cccc(-c3cccc(CC(N)C(=O)O)c3)c2)n1 (stereo not drawn) [Compound 136] | 0 (X < 0 Rank 0)
NC(Cc1cccc(CSc2ncccc2C(=O)O)c1)C(=O)O (stereo not drawn) [Compound 137] | 0 (X < 0 Rank 0)
NC(Cc1cccc(-c2cccc(Sc3nnnn3CC(=O)O)c2)c1)C(=O)O (stereo not drawn) [Compound 138] | 0 (X < 0 Rank 0)
Cn1cnnc1SCc1cccc(CC(N)C(=O)O)c1 (stereo not drawn) [Compound 141] | 0 (X < 0 Rank 0)
NC(Cc1cccc(-c2cccc(Sc3ccc4ccccc4n3)c2)c1)C(=O)O (stereo not drawn) [Compound 144] | 0 (X < 0 Rank 0)
CCOC(=O)c1cnc(SCc2cccc(CC(N)C(=O)O)n2)[nH]c1=O (stereo not drawn) [Compound 146] | 2 (10 < X < 20 Rank 2)
N#CC1(c2ccccc2)CCN(Cc2ccc(-c3ccc(CC(N)C(=O)O)cc3)cc2)CC1 (stereo not drawn) [Compound 147] | 0 (X < 0 Rank 0)
NC(Cc1cccc(CSc2nc(-c3ccccc3)c(-c3ccccc3)[nH]2)n1)C(=O)O (stereo not drawn) [Compound 148] | 0 (X < 0 Rank 0)

same assay, conditions: 10^−5 M

SMILES | Comparison with the Binding of Phenylalanine
Cc1nc(SCc2ccc(-c3ccc(CC(N)C(=O)O)cc3)cc2)sc1CC(=O)O (stereo not drawn) [Compound 122] | 0 (X < 0 Rank 0)
NC(Cc1cccc(CSc2nnnn2CC(=O)O)n1)C(=O)O (stereo not drawn) [Compound 123] | 2 (10 < X < 20 Rank 2)
NC(Cc1ccc(-c2ccc(CSc3nc4cc([N+](=O)[O-])ccc4[nH]3)cc2)cc1)C(=O)O (stereo not drawn) [Compound 124] | 1 (0 < X < 10 Rank 1)
NC(Cc1cccc(CSc2nc3ccccc3c(=O)[nH]2)n1)C(=O)O (stereo not drawn) [Compound 125] | 1 (0 < X < 10 Rank 1)
Cc1nnc(SCc2ccc(-c3ccc(CC(N)C(=O)O)cc3)cc2)s1 (stereo not drawn) [Compound 126] | 1 (0 < X < 10 Rank 1)
CC(=O)c1ccc(N2CCN(Cc3cccc(CC(N)C(=O)O)n3)CC2)cc1 (stereo not drawn) [Compound 127] | 2 (10 < X < 20 Rank 2)
CCOC(=O)c1cnc(SCc2cccc(CC(N)C(=O)O)c2)[nH]c1=O (stereo not drawn) [Compound 131] | 3 (X > 20 Rank 3)
NC(Cc1cccc(-c2cccc(Sc3nc(-c4ccccc4)c(-c4ccccc4)o3)c2)c1)C(=O)O (stereo not drawn) [Compound 134] | 0 (X < 0 Rank 0)
COc1ccc2[nH]c(SCc3cccc(CC(N)C(=O)O)c3)nc2c1 (stereo not drawn) [Compound 135] | 3 (X > 20 Rank 3)
Cc1ccnc(Sc2cccc(-c3cccc(CC(N)C(=O)O)c3)c2)n1 (stereo not drawn) [Compound 136] | 0 (X < 0 Rank 0)
NC(Cc1cccc(CSc2ncccc2C(=O)O)c1)C(=O)O (stereo not drawn) [Compound 137] | 0 (X < 0 Rank 0)
NC(Cc1cccc(-c2cccc(Sc3nnnn3CC(=O)O)c2)c1)C(=O)O (stereo not drawn) [Compound 138] | 0 (X < 0 Rank 0)
Cn1cnnc1SCc1cccc(CC(N)C(=O)O)c1 (stereo not drawn) [Compound 141] | 0 (X < 0 Rank 0)
NC(Cc1cccc(-c2cccc(Sc3ccc4ccccc4n3)c2)c1)C(=O)O (stereo not drawn) [Compound 144] | 0 (X < 0 Rank 0)
CCOC(=O)c1cnc(SCc2cccc(CC(N)C(=O)O)n2)[nH]c1=O (stereo not drawn) [Compound 146] | 3 (X > 20 Rank 3)
N#CC1(c2ccccc2)CCN(Cc2ccc(-c3ccc(CC(N)C(=O)O)cc3)cc2)CC1 (stereo not drawn) [Compound 147] | 0 (X < 0 Rank 0)
NC(Cc1cccc(CSc2nc(-c3ccccc3)c(-c3ccccc3)[nH]2)n1)C(=O)O (stereo not drawn) [Compound 148] | 0 (X < 0 Rank 0)

same assay, conditions: 10^−6 M

SMILES | Comparison with the Binding of Phenylalanine
Cc1nc(SCc2ccc(-c3ccc(CC(N)C(=O)O)cc3)cc2)sc1CC(=O)O (stereo not drawn) [Compound 122] | 1 (0 < X < 10 Rank 1)
NC(Cc1cccc(CSc2nnnn2CC(=O)O)n1)C(=O)O (stereo not drawn) [Compound 123] | 2 (10 < X < 20 Rank 2)
NC(Cc1ccc(-c2ccc(CSc3nc4cc([N+](=O)[O-])ccc4[nH]3)cc2)cc1)C(=O)O (stereo not drawn) [Compound 124] | 1 (0 < X < 10 Rank 1)
NC(Cc1cccc(CSc2nc3ccccc3c(=O)[nH]2)n1)C(=O)O (stereo not drawn) [Compound 125] | 2 (10 < X < 20 Rank 2)
Cc1nnc(SCc2ccc(-c3ccc(CC(N)C(=O)O)cc3)cc2)s1 (stereo not drawn) [Compound 126] | 1 (0 < X < 10 Rank 1)
CC(=O)c1ccc(N2CCN(Cc3cccc(CC(N)C(=O)O)n3)CC2)cc1 (stereo not drawn) [Compound 127] | 0 (X < 0 Rank 0)
CCOC(=O)c1cnc(SCc2cccc(CC(N)C(=O)O)c2)[nH]c1=O (stereo not drawn) [Compound 131] | 3 (X > 20 Rank 3)
NC(Cc1cccc(-c2cccc(Sc3nc(-c4ccccc4)c(-c4ccccc4)o3)c2)c1)C(=O)O (stereo not drawn) [Compound 134] | 1 (0 < X < 10 Rank 1)
COc1ccc2[nH]c(SCc3cccc(CC(N)C(=O)O)c3)nc2c1 (stereo not drawn) [Compound 135] | 2 (10 < X < 20 Rank 2)
Cc1ccnc(Sc2cccc(-c3cccc(CC(N)C(=O)O)c3)c2)n1 (stereo not drawn) [Compound 136] | 3 (X > 20 Rank 3)
NC(Cc1cccc(CSc2ncccc2C(=O)O)c1)C(=O)O (stereo not drawn) [Compound 137] | 2 (10 < X < 20 Rank 2)
NC(Cc1cccc(-c2cccc(Sc3nnnn3CC(=O)O)c2)c1)C(=O)O (stereo not drawn) [Compound 138] | 1 (0 < X < 10 Rank 1)
Cn1cnnc1SCc1cccc(CC(N)C(=O)O)c1 (stereo not drawn) [Compound 141] | 1 (0 < X < 10 Rank 1)
NC(Cc1cccc(-c2cccc(Sc3ccc4ccccc4n3)c2)c1)C(=O)O (stereo not drawn) [Compound 144] | 1 (0 < X < 10 Rank 1)
CCOC(=O)c1cnc(SCc2cccc(CC(N)C(=O)O)n2)[nH]c1=O (stereo not drawn) [Compound 146] | 3 (X > 20 Rank 3)
N#CC1(c2ccccc2)CCN(Cc2ccc(-c3ccc(CC(N)C(=O)O)cc3)cc2)CC1 (stereo not drawn) [Compound 147] | 1 (0 < X < 10 Rank 1)
NC(Cc1cccc(CSc2nc(-c3ccccc3)c(-c3ccccc3)[nH]2)n1)C(=O)O (stereo not drawn) [Compound 148] | 2 (10 < X < 20 Rank 2)
